The results in this text go back to patent EP4696306A1, “ADENOSINE TRIPHOSPHATE SECRETION INHIBITOR, HEPATIC STELLATE CELL ACTIVATION INHIBITOR, HEPATIC STELLATE CELL DEACTIVATOR, HEPATIC FIBROSIS THERAPEUTIC AGENT, NON-ALCOHOLIC STEATOHEPATITIS THERAPEUTIC AGENT, PSORIASIS THERAPEUTIC AGENT, AND USE OF COMPOUND FOR PRODUCING ADENOSINE TRIPHOSPHATE …” (KURUME UNIVERSITY, priority 2023, dated 2024).

Experiment [1] has as its system human epidermal keratinocytes. The experiment in a line: ATP secretion promoted by ionomycin in keratinocytes. Format: cell-based. Here is the method: Human epidermal keratinocytes (Cryopreserved HEK, Lot 1758, Cell Applications Inc.) were cultured using an Epivita Keratinocyte Growth Medium Kit according to the manufacturer's instructions. The procedure was as follows. A supplement medium was added to a hydrocortisone-containing basal medium included in the medium preparation kit to prepare a complete medium. The medium in the dish was removed by aspiration. The cells were washed with 5 ml of BSS (Gbco), and then the BSS was removed by aspiration. After addition of 5 to 6 ml of trypsin/EDTA solution (Gbco), the dish was incubated at 37°C for 2 minutes. After addition of 5 ml of trypsin neutralization solution, the resulting cell suspension was transferred into two 15-ml Falcon tubes, and centrifuged at 200 × g for 5 minutes. The supernatant was removed by aspiration, and the pelleted cell cluster was suspended in 2 ml of the medium at 4.5 × 10^5 cells/ml. An aliquot of the resulting cell suspension was cryopreserved, while another aliquot was cultured and subjected to measurement.
ATP secretion by human epidermal keratinocytes (hereinafter referred to as "keratinocytes") was measured. Regarding control solutions, Krebs-Ringer HEPES supplemented with 0.2% BSA and 25 mM glucose (hereinafter also referred to as "Krebs/Iono(-)") was used as a negative control, and a solution prepared by adding 5 µM ionomycin to this solution (hereinafter also referred to as "Krebs/Iono(+)") was used as a positive control for ATP secretion. Ionomycin is a Ca^2+ ionophore. Addition of ionomycin to cells is known to promote influx of extracellular Ca^2+ into the cells to increase the intracellular Ca^2+ concentration, resulting in enhancement of ATP secretion. Test solutions were prepared by adding clodronate to Krebs/Iono(-) or Krebs/Iono(+) to a final concentration of 0.1 µM (hereinafter also referred to as "Clo/Iono(-)" or "Clo/Iono(+)", respectively) (N = 3).
Keratinocytes were cultured at 2.5 × 10^4 cells/well in a 24-well plate at 37°C in 5% CO2 for 4 days. The medium was removed by aspiration, replaced with Krebs/Iono(-) or Clo/Iono(-), and incubated at 37°C for 6 hours. These solutions were then removed by aspiration, and the content of each well incubated with Krebs/Iono(-) was replaced with 300 µl of a control solution (Krebs/Iono(-) or Krebs/Iono(+)), while the content of each well incubated with Clo/Iono(-) was replaced with 300 µl of a test solution (Clo/Iono(-) or Clo/Iono(+)). After further incubation at 37°C for 20 minutes, 200 µl of the supernatant was collected. The collected supernatant was immediately treated on a heat block at 95°C for 10 minutes, to inactivate ectonucleotidase. ATP in the supernatant was quantified using a Dojindo ATP assay kit - Luminescence (manufactured by Dojindo Laboratories).
After culturing keratinocytes, the medium was removed by aspiration, and replaced with Krebs/Iono(-), or Krebs/Iono(-) supplemented with 10 µM imeglimin, 0.1 µM EPA, 1 µM EPA, or 10 µM clodronate, followed by incubation for 6 hours. Subsequently, the solution was replaced with either a control solution (Krebs/Iono(-) or Krebs/Iono(+)) or a test solution (Krebs/Iono(+) supplemented with 10 µM imeglimin, 0.1 µM EPA, 1 µM EPA, or 10 µM clodronate), followed by incubation at 37°C for 20 minutes and then collection of 200 µl of the supernatant. The collected supernatant was immediately treated on a heat block at 95°C for 10 minutes to inactivate ectonucleotidase. ATP in the supernatant was quantified using a Dojindo ATP assay kit - Luminescence (manufactured by Dojindo Laboratories).
Keratinocytes were cultured in the same manner as in Example 1, and the medium was replaced with Krebs/Iono(-), Krebs/Iono(-) supplemented with 0.1 µM, 1 µM, or 10 µM imeglimin, or Krebs/Iono(-) supplemented with 0.1 µM, 1 µM, or 10 µM metformin, followed by incubation for 6 hours. […]

The test system of experiment [2] is LX-2 cells. The experiment in a line: ATP secretion from LX-2 cells. Format: cell-based, human. Here is the method:
Cells of the immortalized human hepatic stellate cell line LX-2 (manufactured by Merck) was cultured in Dulbecco's modified Eagle's medium (DMEM, 4500 mg/l Glucose, D5796, manufactured by Sigma-Aldrich) supplemented with inactivated 2% fetal bovine serum (FBS), 10 IU/ml penicillin, and 10 IU/ml streptomycin in a T25 or T75 flask at 37°C in 5% CO2.
LX-2 cells (2 × 10^6 cells per well) were seeded in a collagen-coated 6-well culture dish containing Dulbecco's modified Eagle's medium (manufactured by Sigma-Aldrich) supplemented with 10 IU/ml penicillin, […] 2% fetal bovine serum, and cultured in 5% CO2 at 37°C. After 3 days, the LX-2 cells were washed twice and preincubated in Krebs-Ringer buffer (10 mM HEPES-Tris, pH 7.4, 128 mM NaCl, 1.9 mM KCl, 1.2 mM KH2PO4, 1.3 mM MgSO4, 26 mM NaHCO3, 2.4 mM CaCl2, 10 mM glucose, 0.2% (w/v) bovine serum albumin) with or without 10 µM clodronate. The LX-2 cells were then stimulated with Krebs-Ringer buffer supplemented with ionomycin (manufactured by Cayman) regardless of whether clodronate was present or not. For the stimulation, 1 mM EGTA (manufactured by Dojindo) or 10 µM serotonin (5-HT, manufactured by Sigma-Aldrich) was used. The ATP concentration in the culture supernatant was measured in the same manner as in Example 6.

The mark [3] stands for this setting: 10 µM, 6 hours incubation, then 20 minutes with ionomycin, N = 4.

Consider `O=P(O)(O)C(Cl)(Cl)P(=O)(O)O` [clodronate], for which the “ATP secretion promoted by ionomycin” value is given as “inhibits the ATP secretion promoted by ionomycin” in experiment [1] (0.1 µM clodronate, 6 hours incubation, then 20 minutes with 5 µM ionomycin, N = 3) and “inhibited” in experiment [1] (setting [3]). The “ATP exocytosis induced by ionomycin” value in experiment [2] (10 µM clodronate, N = 6) is on record as “inhibited”. The “ATP secretion promoted by 5-HT” value in experiment [2] (10 µM serotonin, 10 µM clodronate, N = 6) was “strongly inhibited”.
`C[C@H]1N=C(N(C)C)N=C(N)N1` [imeglimin]: in experiment [1] (0.1 µM, 1 µM, 10 µM, 6 hours incubation, N = 3), the “ATP secretion inhibitory effect, comparison and concentration dependence” value was “slightly higher ATP secretion inhibitory effect than metformin”. Moreover, in experiment [1] (0.1 µM, 6 hours incubation, N = 3), the “ATP secretion inhibitory effect” value was “exhibit an ATP secretion inhibitory effect”. Besides, in experiment [1] (1 µM imeglimin), the “time required for production of a strong inhibitory effect” value is recorded as “about 6 hours”. For the same compound, the “ATP secretion level relative to that obtained using the control solution” value in experiment [1] (1 µM imeglimin, incubation time 2 hours, N = 3) is “about 85%”; in experiment [1] (1 µM imeglimin, incubation time 6 hours, N = 3) it was “about 40%”. The “ATP secretion inhibitory effect compared with reference inhibitors” value in experiment [1] (10 µM imeglimin versus 1 µM EPA and 10 µM clodronate) was “comparable to those of 1 µM EPA and 10 µM clodronate”. Further, the “ATP secretion promoted by ionomycin” value in experiment [1] (setting [3]) was “inhibited”. In addition, the “ATP secretion from the LX-2 cells” value in experiment [2] (imeglimin, concentration not given, N = 8) is recorded as “inhibited ATP secretion”.
With `C=C(OP(=O)(O)O)C(=O)O` [PEP, phosphoenolpyruvic acid], the “ATP secretion promoted by ionomycin” value in experiment [1] (5 mM PEP, 20 minutes, N = 4) was “inhibited”; in experiment [1] (10 mM PEP, 20 minutes, N = 4) it was “inhibited”. For the same compound, in experiment [1] (data not shown), the “concentration exhibiting a relatively strong ATP secretion inhibitory effect” value is recorded as “not less than 3 mM”.
